Data as given in patent US12402628B2, “Compositions, kits, methods and uses for cleaning, disinfecting, sterilizing and/or treating” (Collidion, Inc., priority 2018, dated 2025).
Values joined by “and” are separate entries in the source; they are usually repeats but may differ in a detail not shown here. Identical values can stand only once.

System: Staphylococcus epidermidis (ATCC 12228)
Test: Bacterial viability assay with Bovine Serum, HOCl and salt controls (Table 30)
Assay type: cell-based
Settings: 200 ppm Hypochlorous acid, 5 minutes
Method: Stock cultures of pathogenic bacteria Staphylococcus epidermidis (ATCC 12228) were prepared as described in Example 3. The final numeration count uses aliquot volume, count obtained on TSA plate and the total original volume of culture. The remaining amount in the tube was used to inoculate actual test samples. Samples from each composition tested were set up with Bovine Serum as follows: 1) Assays with serum contained 100 μL of pathogenic bacteria suspension, 500 μL of Bovine Serum and 9400 μL of one of the composition formulations shown in Table 29; 2) HOCl control assays contained 100 μL of pathogen bacteria suspension, 500 μL of Bovine Serum and 9400 μL of 350 ppm, 200 ppm, 100 ppm or 50 ppm Hypochlorous acid; 3) Salt control assays contained 100 μL of pathogen bacteria suspension, 500 μL of Bovine Serum and 9400 μL of 140 ppm, 80 ppm, 40 ppm or 20 ppm each of Copper (II) chloride, Iron (II) chloride and zinc chloride or each of Copper (II) chloride, Iron (III) chloride and zinc chloride; and 4) Negative control assays contained 100 μL of pathogen bacteria suspension, 500 μL of Bovine Serum and 9400 μL of sterile water. Samples were exposed for five (5) minutes at which point a neutralizing agent was used to inhibit the activity of the microbial agent being tested. […] The presence of viable bacteria was then measured by counting the number of colonies observed on the agar medium.

## Hypochlorous acid [HOCl Control]
  Log Growth Reduction, HOCl Control: 3.03 log and 3.00 log
